“And” between values parts separate entries of the source, which are not always exact repeats. Equal entries are not always repeated. Structures can show the parent of a compound that is named as a salt. Where two headings read alike, the source gives them in different places.
Key:
[1] = test system: TNF-alpha; test: Microglial TNF-alpha secretion, LPS stimulated; format: cell-based; settings: for TNFa: percentage of TNFa vs LPS stimulated controls, Table 2; for TNF-a.: Table 3, microglial inflammation, presented for comparison
Experimental: The efficacy of these compounds to reduce toxicity are assessed, as reflected by age-dependent paralysis, in an Abeta transgenic C. elegans model of Alzheimer's Disease. Because microglial inflammation, especially the cytokine TNF-alpha, are implicated in driving the pathophysiology of Alzheimer's Disease, […], was also assessed.

[2] = test system: microglial cells; test: MTT viability of microglial cells (microglial toxicity); format: cell-based
[3] = test system: C. elegans; test: Lifespan in C. elegans; format: in vivo
[4] = Viability of Vero cells (CC50); format: cell-based; settings: African green monkey; concentration that reduces viability of Vero cells
[5] = test system: SARS-CoV-2; test: microbe, parasite or virus in culture; format: cell-based
[6] = test system: Abeta transgenic C. elegans; test: Paralysis in Abeta transgenic C. elegans (Abeta toxicity); format: in vivo; settings: for paralysis: Table 3, Abeta toxicity in C. elegans, one to six unexplained values per cell
[7] = test system: Vero cells; test: Viability of Vero cells (CC50); format: cell-based; settings: concentration that reduces viability of Vero cells
[8] = test system: mouse model of intracerebral hemorrhage; test: Mouse model of intracerebral hemorrhage, motor and cognitive function; format: in vivo; settings: for cognitive function: alternation in a Y-maze; for cognitive function / motor function: compared to DMSO, normalized to pre-ICH function; for motor function: rotarod
Experimental: FIG. 1. […] Motor function was assessed using rotarod and cognitive was assessed by alternation in a Y-maze. All data were normalized to data pre-ICH function.
Motor function was assessed using rotarod and cognitive was assessed by alternation in a Y-maze. All data were normalized to data pre-ICH function.

[9] = Plasma and brain concentrations after IV or oral administration in mice; format: in vivo; settings: male C57BL/6 mice
Experimental: FIG. 2. Plasma and brain concentrations of TC084-110 over 8 h following a single IV injection (A) at 1 mg/kg or oral administration (B) at 10 mg/kg in male C57BL/6 mice. […] Plasma and brain concentrations at each time point represent the mean+/−SD from 3 mice.

[10] = test system: Abeta transgenic C. elegans; settings: Zhang, Poplawski et al. 2009; cited from earlier work
[11] = test system: mouse double-transgenic (A-beta/presenilin) model of AD; settings: treatment between 14 and 15 months; Govindarajan et al. 2011; cited from earlier work
[12] = percentage of MTT viability compared to unstimulated DMSO control cells, Table 2
[13] = Table 3, microglial toxicity, presented for comparison
[14] = Table 3, net protective effects in C. elegans, class letter
[15] = Severe acute respiratory syndrome coronavirus 2, concentration that inhibits replication of SARS-CoV-2 in Vero cells by 50%, read-out: IC50
[16] = concentration that inhibits replication of SARS-CoV-2 in Vero cells by 50%, read-out: IC50

Compound | TNFa [1] [%] | MTT [2, 12] [%] | lifespan in C. elegans [3] | Lifespan ([3]; Table 2, class letters I, D, N) | also measured
CC(=O)N1c2ccccc2[S+]([O-])c2ccc(Cl)cc21 (centres unmarked) [TC84-39, 1-(2-chloro-5-oxido-10H-phenothiazin-10-yl)ethan-1-one] | 90.88 | 134.67 | increased lifespan | I | 
CC(=O)c1ccc2c(c1)N(C(C)=O)c1ccccc1[S+]2[O-] (centres unmarked) [TC84-20, 1,1′-(5-oxido-10H-phenothiazine-2,10-diyl)bis(ethan-1-one)] | 95.41 | 158.76 | increased lifespan | I | 
CN1CCCCC1CCN1c2ccccc2Sc2cc(C(F)(F)F)ccc21 (centres unmarked) [TC84-144, 10-(2-(1-methylpiperidin-2-yl)ethyl)-3-(trifluoromethyl)-10H-phenothiazine] | 45.34 | 41.27 | increased lifespan | I | 
CC(=O)N1c2ccccc2Sc2ccc(C(F)(F)F)cc21 [TC84-32, 1-(2-(trifluoromethyl)-10H-phenothiazin-10-yl)ethan-1-one] | 90.74 | 141.59 |  |  | 
COc1ccc2c(c1)N(C(C)=O)c1ccccc1[S+]2[O-] (centres unmarked) [TC84-37, 1-(2-methoxy-5-oxido-10H-phenothiazin-10-yl)ethan-1-one] | 90.49 | 140.38 |  |  | 
COc1ccc2c(c1)N(CCC1CCCCN1C(C)=O)c1ccccc1S2 (centres unmarked) [TC96-32, 1-(2-(2-(2-methoxy-10H-phenothiazin-10-yl)ethyl)piperidin-1-yl)ethan-1-one] | 78.98 | 106.92 |  |  | 
CN(C)CCCN1c2ccccc2Sc2ccc(C(F)(F)F)cc21 [Triflupromazine Hydrochloride] |  |  |  |  | CC50 [4]: 7 µM
CCC(CC)COC(=O)[C@H](C)N[P@](=O)(OC[C@H]1O[C@@](C#N)(c2ccc3c(N)ncnn23)[C@H](O)[C@@H]1O)Oc1ccccc1 [Remdesivir, reference compound] |  |  |  |  | IC50 ([5]; Severe acute respiratory syndrome coronavirus 2, Vero): 1.2 µM; CC50 [4]: > 20 µM
Cc1cc2c(cc1C)N(CCCN(C)C)c1ccccc1S2 [TC84-124, 3-(2,3-dimethyl-10H-phenothiazin-10-yl)-N,N-dimethylpropan-1-amine] | 56.73 | 82.48 | increased lifespan | I | microglial TNF-alpha secretion [1]: significantly reduced; TNF-a. [1]: 56.73%; MTT [2, 13]: 82.48%; Lifespan [3, 14]: I; Abeta toxicity [6]: reduced Abeta toxicity; SARS-CoV-2 replication [5]: reduced SARS-CoV-2 replication; IC50 [5, 15]: 1.7 µM; CC50 [4]: 6.5 µM
Cc1cc2c(cc1C)N(CCC1CCCCN1C)c1ccccc1S2 (centres unmarked) [TC84-125, 2,3-dimethyl-10-(2-(1-methylpiperidin-2-yl)ethyl)-10H-phenothiazine] | 41.37 | 42.77 | increased lifespan | I | microglial TNF-alpha secretion [1]: significantly reduced; Abeta toxicity [6]: reduced Abeta toxicity
Cc1ccc2c(c1)N(CCC1CCCCN1C)c1cc(C(F)(F)F)ccc1S2 (centres unmarked) [TC96-20, 2-methyl-10-(2-(1-methylpiperidin-2-yl)ethyl)-8-(trifluoromethyl)-10H-phenothiazine] | 49.67 | 51.90 |  |  | microglial TNF-alpha secretion [1]: significantly reduced; Abeta toxicity [6]: reduced Abeta toxicity
CC(=O)c1ccc2c(c1)N(C(C)=O)c1ccccc1S2 [TC84-13, 1,1′-(10H-phenothiazine-2,10-diyl)bis(ethan-1-one)] | 95.36 | 154.03 | increased lifespan | I | 
CC(=O)N1c2ccccc2[S+]([O-])c2ccc(C(F)(F)F)cc21 (centres unmarked) [TC84-38, 1-(5-oxido-2-(trifluoromethyl)-10H-phenothiazin-10-yl)ethan-1-one] | 97.23 | 149.90 | increased lifespan | I | 
COc1ccc2c(c1)N(CCCN(C)C(C)=O)c1ccccc1S2 [TC84-163, N-(3-(2-methoxy-10H-phenothiazin-10-yl)propyl)-N-methylacetamide] | 99.98 | 108.79 | increased lifespan | I | 
Chlorpromazine [reference compound] |  |  |  |  | TNF-a. [1]: 63.83%; MTT [2, 13]: 79.38%; Lifespan [3, 14]: I; paralysis [6]: 0%; IC50 [5, 16]: 4.4 µM; CC50 [7]: 6.7 µM
COc1ccc2c(c1)N(C(C)=O)c1ccccc1S2 [TC84-31, 1-(2-methoxy-10H-phenothiazin-10-yl)ethan-1-one] | 92.28 | 153.72 |  |  | 
CN1CCCCC1CCN1c2ccccc2Sc2ccc(F)cc21 (centres unmarked) [TC84-110, 2-fluoro-10-(2-(1-methylpiperidin-2-yl)ethyl)-10H-phenothiazine] | 58.49 | 91.99 | increased lifespan | I | microglial TNF-alpha secretion [1]: significantly reduced; TNF-a. [1]: 58.49%; MTT [2, 13]: 91.99%; Lifespan [3, 14]: I; protection to maintain open field behavior and cognitive impairments ([8]; administered after the lesion was produced): significantly protective; cognitive function [8]: preserve; off-target effects such as sedation ([8]; mouse): no discernable off-target effects; motor function [8]: preserve; Abeta toxicity [6]: reduced Abeta toxicity; SARS-CoV-2 replication [5]: reduced SARS-CoV-2 replication; IC50 [5, 15]: 1.2 µM; oral availability ([9]; oral administration at 10 mg/kg): orally available; brain/plasma ratio ([9]; single IV 1 mg/kg or oral 10 mg/kg, over 8 h): very high; CC50 [4]: 8.1 µM
CC(=O)c1ccc2c(c1)N(CCCN(C)C(C)=O)c1ccccc1S2 [TC84-161, N-(3-(2-acetyl-10H-phenothiazin-10-yl)propyl)-N-methylacetamide] | 89.27 | 106.15 | increased lifespan | I | 
CCCC(=O)[O-].[Na+] [sodium butyrate] |  |  |  |  | Abeta toxicity in vivo in a C. elegans model of AD [10]: significantly reduces Abeta toxicity; A-beta plaques [11]: no changes in A-beta plaques; acetylation of H3K14, H4K5, and H4K16 [11]: reduced acetylation; cognitive impairments [11]: reversed cognitive impairments
CC(=O)N(C)CCCN1c2ccccc2Sc2ccc(C(F)(F)F)cc21 [TC84-162, N-methyl-N-(3-(2-(trifluoromethyl)-10H-phenothiazin-10-yl)propyl)acetamide] | 94.58 | 121.08 |  |  | microglial TNF-alpha secretion [1]: significantly reduced; Abeta toxicity [6]: reduced Abeta toxicity
Chlorprothixene [reference compound] |  |  |  |  | TNF-a. [1]: 69.84%; MTT [2, 13]: 122.40%; Lifespan [3, 14]: I 0.0493; cognitive function [8]: preserve; motor function [8]: preserve; paralysis [6]: 64.31% and 47.65%; IC50 [5, 16]: 1 µM; CC50 [7]: 3.5 µM
